Measured values taken from patent US5298491A, “Derivatives of endogenous mediators, their salts, method of preparation, applications and compositions in which they are present” (priority 1990, dated 1994).

Columns and labels:
5-HT1A sites [1] = experiment: Labelling of guinea-pig hippocampus (autoradiography); format: binding; details: 0.03 nM
Description: (§1) The protocol for preparing the brain sections is common to all the studies which follow. The animals are decapitated after anaesthesia with chloral hydrate (400 mg/kg of gross weight). The brains are quickly removed from the skull and frozen by immersion in isopentane cooled by liquid nitrogen. 20 μm sections, prepared in a cryostat at -20° C., are mounted on gelatin-coated slides and stored at -20° C.
(§2) The sections are preincubated for 1 hour at 4° C. in a Krebs solution (NaCl 118 mM; KCl 4.8 mm; CaCl2 1.2 mM; MgCl2 1.2 mM; Tris-HCl 15 mM, pH 7.4) in order to remove the endogenous ligands.
(§3) The incubations take place for 60 minutes at 20° C. in a Krebs solution containing 10 μM pargyline, 5.7.10^-4 M ascorbic acid, 10 g/l of bovine serum albumin (fraction V, Sigma) and 0.03 nmol/l of the derivative S--CM-[^125 I]--R. The non-specific binding is determined on homothetic sections under the same conditions, but in the presence of 10^-5 M 5-HT.
(§4) After incubation, the sections are rinsed twice for 1 min in distilled water and dried by a stream of hot air. The sections are affixed to a kilm (Amersham) for one week in the presence of standards ([^125 I] microscale, Amersham). The films are developed for 6 min with Kodak D19, rinsed and fixed with AL4 (Kodak). Quantitative analysis of the autoradiographs is performed with an image analysis system (Segu et al., op. cit.). […]

serotonin receptors = experiment: Affinity and selectivity for serotonin receptor sites; format: binding
5-HT1D sites [2] = experiment: Labelling of 5-HT1D structures of guinea-pig brain sections (autoradiography); format: binding
Description: as §1, §2, §3
(§5) After incubation, the sections are rinsed twice for 1 min in distilled water and dried by a stream of hot air. The sections are affixed to a kilm (Amersham) for one week in the presence of standards ([^125 I] microscale, Amersham). The films are developed for 6 min with Kodak D19, rinsed and fixed with AL4 (Kodak). Quantitative analysis of the autoradiographs is performed with an image analysis system (Segu et al., op. cit.).
In the central nervous system of the guinea-pig, the anatomical structures containing sites of the 5-HT1A type and the pharmacology of these sites are the same as in the rat. By contrast, the pharmacology of the sites contained in the substantia nigra of the guinea-pig is different from that of the sites of the same structure in the rat (Heuring and Peroutka, J. Neurosci., 7, 1987, p. 894-903). These sites are therefore denotedas 5-HT1D.

5-HT1D sites [3] = target: T1, 5-HT1D sites (Macaca mulatta, UniProt F6SFA9); experiment: Labelling of substantia nigra in monkey brain sections (autoradiography); format: binding, monkey (Macacca mulatta n.); details: for binding to / marker for 5-HT1D sites: conclusion
T1 construct: The right hemisphere is cut out and frozen by isopentane cooled in liquid nitrogen; from tissue; host or cells: rhesus monkey brain sections (right hemisphere, 10 μm, frozen), substantia nigra
T1 sequence (F6SFA9 1-390): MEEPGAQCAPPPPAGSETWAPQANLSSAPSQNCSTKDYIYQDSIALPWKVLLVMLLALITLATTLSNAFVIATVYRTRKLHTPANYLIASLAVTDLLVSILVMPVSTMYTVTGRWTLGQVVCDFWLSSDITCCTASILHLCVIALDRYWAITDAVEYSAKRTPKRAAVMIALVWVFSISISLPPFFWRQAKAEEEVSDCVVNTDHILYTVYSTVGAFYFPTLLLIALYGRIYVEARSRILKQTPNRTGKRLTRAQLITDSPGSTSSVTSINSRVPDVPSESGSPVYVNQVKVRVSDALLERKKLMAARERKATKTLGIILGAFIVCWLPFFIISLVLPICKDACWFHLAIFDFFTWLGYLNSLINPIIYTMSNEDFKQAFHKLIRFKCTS
Description: A male monkey (Macacca mulatta n.) weighing 8 kg was sacrificed by means of an overdose of barbiturates and exsanguination. […] The right hemisphere is cut out and frozen by isopentane cooled in liquid nitrogen. The block is stored at -20° C. […] They are stored at -20° C. until required.
Some of the sections are incubated under identical conditions except that the radioactive probe is replaced either with 2 nM [^3 H]5-HT, or with 2 nM [^3 H]5-HT in the presence of 100 nM 8-hydroxy-2-[di-N-propylamino]tetralin (8-OH-DPAT) and 100 nM mesulergin, or with 1 nM [^3 H]8-OH-DPAT. After rinsing 2 x for 1 minute in distilled water, the sections are dried.
The slides are affixed to a tritium-sensitive film for 8 days. The film is developed for 6 minutes in D19, rinsed and fixed.

[4] = tested on: other receptors which are not of the 5-HT type (such as β-adrenergic receptors); experiment: Binding to receptors not of the 5-HT type
[5] = Toxicity observed at the injected dose; format: in vivo, mice and guinea-pigs
Description: (§6) 2 mice and 2 guinea-pigs are deeply anaesthetized with chloral hydrate (intraperitoneal injection of 0.12 ml of a 35% solution per 100 g of body weight).
(§7) The mice and guinea-pigs receive intracardiac injections of 200 μl and 1.5 ml, respectively, of S--CM-G[^125 I]TNH2.
(§8) After 10 minutes, the animals, still under deep anaesthesia, are decapitated and the brains are frozen and stored as indicated in Example 1.

[6] = Distribution of labelling in vivo with a gamma camera after intravenous injection; details: mice
Description: 2. Study of the distribution of the binding of the derivative S--CM-G[125]TNH2 by visualization in vivo with a gamma camera
The animals (mice) are anaesthetized and injected intravenously with the derivative S--CM-G[^125 I]TNH2. […] In this latter zone, the labelling is retained for 15 to 20 minutes before slowly disappearing.

rat central receptors = experiment: Labelling of rat brain sections with iodinated derivatives (autoradiography); details: 0.03 nM iodinated derivative; non-specific binding with 10^-5 M 5-HT
Description: as §1

5-HT1A sites [7] = experiment: Labelling of Ammon's horn in postmortem human brain sections (autoradiography); format: binding; details: treated as monkey sections
Description: (§9) The sections are preincubated for 1 h at 4° C. in a Krebs solution (mM: NaCl, 118; KCl, 4.5; CaCl2, 1.2; MgCl2, […]; Tris, 15; pH 7.4) in order to remove the endogenous ligands. They are then incubated at 20° C. for 60 minutes in a solution containing 10^-5 M pargyline, 57 mM ascorbic acid, 10 g/l of bovine serum albumin and 0.02 nM S--CM-G[^125 I]TNH2, alone or in the presence of increasing concentrations of serotonin. Some of the sections are incubated under identical conditions except that the radioactive probe is replaced either with 2 nM [^3 H]5-HT, or with 2 nM [^3 H]5-HT in the presence of 100 nM 8-hydroxy-2-[di-N-propylamino]tetralin (8-OH-DPAT) and 100 nM mesulergin, or with 1 nM [^3 H]8-OH-DPAT. After rinsing 2 x for 1 minute in distilled water, the sections are dried.
(§10) The slides are affixed to a tritium-sensitive film for 8 days. The film is developed for 6 minutes in D19, rinsed and fixed. The autoradiographs are quantified with a video system for image analysis (Segu et al., 1990).
(§11) a) Postmortem human brains are stored at -20° C. 10 μm sections are prepared from blocks containing either the locus niger or the Ammon's horn. The sections are treated as indicated in 4. for the monkey brain sections.
(§12) The locus niger contains virtually exclusively binding sites of the 5-HT1D type, whereas the Ammon's horn is composed predominantly of sites of the 5-HT1A type.

5-HT1C sites [8] = experiment: Labelling of guinea-pig choroid plexus (autoradiography); format: binding; details: 0.03 nM
Description: as §1, §2, §3, §5

[9] = Passage across the blood-brain barrier after intracardiac injection (brain autoradiography); format: in vivo, mice and guinea-pigs; details: 10 minutes; for passage across the blood-brain barrier: intracardiac injection, conclusion
Description: as §6, §7, §8
Sections are prepared and autoradiography is carried out as described in Example 1.

5-HT1C sites [10] = experiment: Labelling of rat choroid plexus (autoradiography); format: binding; details: 0.03 nM
Description: as §1, §2, §3, §4

5-HT1B sites = 5-HT1B sites (Rattus norvegicus, UniProt P28564); experiment: Labelling of 5-HT1B structures of rat brain sections (autoradiography); format: binding
Sequence of 5-HT1B sites (P28564 whole entry): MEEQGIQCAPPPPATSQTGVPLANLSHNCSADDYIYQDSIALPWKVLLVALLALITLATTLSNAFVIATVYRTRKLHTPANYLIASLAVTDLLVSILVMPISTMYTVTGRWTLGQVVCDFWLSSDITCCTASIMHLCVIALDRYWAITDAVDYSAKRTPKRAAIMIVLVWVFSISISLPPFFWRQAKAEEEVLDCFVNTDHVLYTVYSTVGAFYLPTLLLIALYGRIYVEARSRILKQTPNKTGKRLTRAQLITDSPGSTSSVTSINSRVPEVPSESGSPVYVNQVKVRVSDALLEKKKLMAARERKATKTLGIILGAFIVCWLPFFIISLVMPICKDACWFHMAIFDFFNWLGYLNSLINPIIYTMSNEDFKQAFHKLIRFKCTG
Description: as §1, §2, §3, §5
This last structure is known for containing almost exclusively binding sites of the 5-HT1A type, whereas the others contain sites of the 5-HT1B type (Hoyer et al., Eur. J. Pharmacol., 118, 1985, P. 1-12). In the anterior region, the striatum (ST) is labelled: it contains especially 5-HT1B sites; the choroid plexus (Px), which contains 5-HT1c sites, is not labelled.

5-HT1A sites [11] = experiment: Labelling of rat hippocampus (autoradiography); format: binding; details: 0.03 nM
Description: as §1, §2, §3, §4

5-HT1D receptors = experiment: Labelling of locus niger in postmortem human brain sections (autoradiography); format: binding
Description: as §9, §10, §11, §12

NCCc1c[nH]c2ccc(OCC(=O)NCC(=O)N[C@@H](Cc3ccc(O)c([125I])c3)C(N)=O)cc12 [S--CM-G[^125 I]TNH2]
labelling of the hippocampus (5-HT1A sites [1]; listed as S--CM-G[^125I]TNH2): not the hippocampus | labelling of the hippocampus (5-HT1A sites [1]; listed as S-CM-G[^125 I]TNH2): not labelled | preferential affinity among 5-HT1 sites (serotonin receptors; 5-HT1B and 5-HT1D vs 5-HT1A and 5-HT1C): preferential affinity for the 5-HT1B and 5-HT1D sites compared with the 5-HT1A and 5-HT1C sites | ligand labelling of the 5-HT1D sites (serotonin receptors; compared with other ligands): only ligand to label the 5-HT1D sites | labelling of the substantia nigra (5-HT1D sites [2]; 0.03 nM): labels the substantia nigra | labelling of St, SD and SN (5-HT1D sites [2]; FIG. 6, 0.03 nM): labelled | marker for 5-HT1D sites (5-HT1D sites [2]; conclusion): marker for sites with a high affinity for serotonin of the 1D type | labelling of the substantia nigra (5-HT1D sites [3]; 0.02 nM S-CM-G[125I]TNH2): virtually exclusive labelling of the substantia nigra | labelling of the substantia nigra (5-HT1D sites [3]; 0.02 nM S-CM-G[125I]TNH2, listed as [^125 I]S-CM-GTNH2): exclusive labelling of the substantia nigra | binding to / marker for 5-HT1D sites (5-HT1D sites [3]): marker for 5-HT1D receptors | binding to / marker for 5-HT1D sites (5-HT1D sites [3]; listed as S--CM-G[^125 I9 TNH2): specific for the 5-HT1D sites | binding to / marker for 5-HT1D sites (5-HT1D sites [3]; listed as S--CM-G[^125 I ]TNH2): binds to the 5-HT1D sites | selectivity vs receptors not of the 5-HT type [4]: high selectivity without binding to other receptors which are not of the 5-HT type | toxicity [5]: No toxicity was observed | labelling of the vascular system 10 minutes after the injection ([6]; 10 minutes): the labelling decreases in the vascular system, except for the heart and the cerebral vascular system | initial distribution of labelling ([6]; gamma camera): very quickly observed to diffuse into the heart, the entire vascular system and the liver | labelling of the bladder ([6]; longer term): increases in the longer term | labelling of the heart ([6]; longer term): remaining labelled for a fairly long time | labelling / specific retention on rat brain sections (rat central receptors): retained specifically on rat brain sections | labelling of the Ammon's horn (5-HT1A sites [7]): weak labelling | labelling of the choroid plexus (5-HT1C sites [8]): not labelled | labelling of brain sections after in vivo injection ([9]; intracardiac injection (mice 200 μl, guinea-pigs 1.5 ml)): no labelling | passage across the blood-brain barrier [9]: does not cross the blood-brain barrier | passage across the blood-brain barrier ([9]; listed as S--CM-G[125]TNH2): does not pass through the blood-brain barrier | labelling of the choroid plexus (5-HT1C sites [10]): not labelled | labelling of St, SD and SN (5-HT1B sites; FIG. 5, 0.03 nM): labelled | labelling of the striatum (5-HT1B sites; anterior region, 0.03 nM): labelled | marker specificity for 5-HT1B sites (5-HT1B sites; conclusion): specific marker for binding sites with a high affinity for serotonin of the 1B type | labelling of the substantia nigra and the dorsal subiculum (5-HT1B sites; mesencephalic region, 0.03 nM): intense labelling | labelling of the hippocampus (5-HT1A sites [11]): no labelling | labelling of the hippocampus (5-HT1A sites [11]; listed as S-CM-G[^125 I]TNH2): not labelled | labelling of 5-HT1D receptors of the human brain in vitro (5-HT1D receptors; conclusion): labels the 5-HT1D receptors of the human brain in vitro | labelling of the locus niger (5-HT1D receptors; postmortem, treated as monkey sections): strong labelling
